Experimental data reported in paper PMC3793977, “High-Throughput Screening (HTS) and Hit Validation to Identify Small Molecule Inhibitors with Activity against NS3/4A proteases from Multiple Hepatitis C Virus Genotypes” (PLoS ONE, 2013).
pIC50: −log10 of the molar value.

Experiments:
full-length NS3/4A = target: T1, full-length NS3/4A (Hepatitis C virus genotype 1b, UniProt Q9WMX2); test: SPR binding assay (dissociation equilibrium constant KD); conditions: double referenced with blank and unrelated reference protein
T1 construct: wild-type HCV NS3 (HCV polyprotein residues 1027–1657); His-tag (N); made in house
Procedure: The full-length NS3/4A enzyme was prepared in a storage buffer (50 mM HEPES, pH 7.6, 500 mM NaCl, 1 mM DTT, 0.2% Triton X-100, and 20% glycerol) and immobilized on a CM5 sensor chip using standard amine-coupling at 25°C with running buffer HBS-P (10 mM HEPES, 150 mM NaCl, 0.05% surfactant P-20, pH 7.4) using a Biacore T100 instrument. Flow channels 1 and 3 were activated by 1-ethyl-3-(3-dimethylaminopropyl) carbodiimide hydrocholoride (EDC)/N-hydroxy succinimide (NHS) mixture, and the activated surface was blocked by ethanolamine (pH 8.5) as controls. The NS3/4A enzyme was diluted in 10 mM sodium acetate (pH 5.0), and immobilized to flow channel 4 after sensor surface activation with EDC/NHS with a 7 min injection followed by ethanolamine blocking on unoccupied surface area. NS3/4A immobilization level was ∼8,500 response units (RU). An unrelated reference protein (92 kDa) was also immobilized to flow channel 2 as another control to be compared with NS3/4A (74.6 kDa). Fifteen initial hit compounds were prepared as 10 mM DMSO stock solutions. Compound solutions with a series of increasing concentrations (0–200 µM at 1.5-fold dilution) were applied to all four channels at a 10 µL/min flow rate at 25°C. Sensorgrams were analyzed using Biaevaluation software 2.0.3, and response unit difference (ΔRU) values at each concentration were measured during the equilibration phase. Data were either single referenced with a blank (enthanolamine) or double referenced with both blank and reference protein RU values. SigmaPlot 11.0 was used to fit the data to a single rectangular hyperbolic curve to determine KD values. The hyperbola function, y = ymax·x/(KD+x), was used to plot response units and corresponding concentration, where y is the response, ymax is the maximum response, and x is the compound concentration.

[1] = target: T2, full-length NS3/4A genotype 1b mutant A156V (Hepatitis C virus genotype 1b, UniProt Q9WMX2, A1182V); test: Inhibition assay with drug-resistant mutant A156V; type: biochemical; conditions: genotype 1b full-length mutant
T2 construct: wild-type HCV NS3 (HCV polyprotein residues 1027–1657); His-tag (N); made in house
Procedure: The full-length genes of wild-type HCV NS3 (HCV polyprotein residues 1027–1657) with a his-tag at the N-terminus and NS4A (residues 1658–1711) with no tag were cloned, co-expressed, and purified as described. Eight NS3 drug resistant mutants (V36M, V36A, T54A, R155K, R155T, A156T, A156S, and 156V) were generated by mutagenesis using full-length, wild-type NS3-containing recombinant plasmid (pETDuet-1/FL NS3/4A) as a template. The over-expression and purification of all mutants were performed by the same method as the wild-type with minor modifications.
The inhibitory activity of the final hit compounds from HTS were tested against three other HCV genotypes (1a, 2a, and 4d), along with a control (genotype 1b) and five NS3 drug-resistant mutants. Eight full-length NS3 mutants (V36M, R155K, A156T, A156S, 156V, V36A, T54A, and R155T) were generated by mutagenesis and purified, and the three HCV NS3/4A protease genotypes were purchased from Anaspec. Unfortunately the enzyme activities of the three mutants V36A, T54A, and R155T were much less than that of the rest of the mutants and were insufficient for testing, therefore mutant studies were done with the five active mutants. Continuous kinetic assays were performed against all hit compounds in the same way as the wild-type NS3/4A. […]

Cc1cc(NC(=O)Cc2csc(NS(=O)(=O)c3ccccc3)n2)ccc1Br [Compound 12]
SPR binding to NS3/4A, double referenced (full-length NS3/4A): specific binding | pIC50 [1]: ≥ 4.70
